Assay results reported in US6878705B2 (dated 2005).

Row | SMILES | melting point
1 | Cn1cc(C(=O)NCc2ccc(Cl)cc2)c(=O)c2cc(CN3CCOCC3)oc21 | 211 to 212 °C
2 | CN(Cc1cc2c(=O)c(C(=O)NCc3ccc(C(F)(F)F)cc3)cn(C)c2o1)C[C@@H](O)c1ccco1 | 113 to 115 °C
3 | O=C(NCc1ccc(Cl)cc1)c1cn(CCc2ccccc2)c2oc(CN3CCOCC3)cc2c1=O | 150 to 153 °C
4 | CCN(CC)CCn1cc(C(=O)NCc2ccc(Cl)cc2)c(=O)c2cc(CN3CCOCC3)oc21 | 131 to 134 °C
5 | CC(O)CNCc1cc2c(=O)c(C(=O)NCc3ccc(Cl)cc3)cn(C)c2o1 (stereo not shown) | 172 to 173 °C
6 | CC(O)CN(C)Cc1cc2c(=O)c(C(=O)NCc3ccc(Cl)cc3)cn(C)c2o1 (stereo not shown) | 152 °C
7 | Cn1cc(C(=O)NCc2ccc(Cl)cc2)c(=O)c2cc(CN3CC[C@@H](O)C3)oc21 | 189 to 190 °C
8 | CN(Cc1cc2c(=O)c(C(=O)NCc3ccc(Cl)cc3)cn(C)c2o1)CC(O)c1ccccc1 (stereo not shown) | 118 to 121 °C
9 | CN(Cc1cc2c(=O)c(C(=O)NCc3ccc(Cl)cc3)cn(C)c2o1)CC(O)c1ccc(O)cc1 (stereo not shown) | 117 to 122 °C
10 | COc1cccc(C(O)CN(C)Cc2cc3c(=O)c(C(=O)NCc4ccc(Cl)cc4)cn(C)c3o2)c1 (stereo not shown) | 116 to 120 °C
11 | CN(Cc1cc2c(=O)c(C(=O)NCc3ccc(Cl)cc3)cn(C)c2o1)CC(O)c1cccnc1 (stereo not shown) | 145 to 149 °C
12 | Cc1ccc(C(O)CN(C)Cc2cc3c(=O)c(C(=O)NCc4ccc(Cl)cc4)cn(C)c3o2)o1 (stereo not shown) | 130 to 132 °C
13 | CN(Cc1cc2c(=O)c(C(=O)NCc3ccc(Cl)cc3)cn(C)c2o1)CC(O)c1ccoc1 (stereo not shown) | 93 to 97 °C
14 | CN(Cc1cc2c(=O)c(C(=O)NCc3ccc(Cl)cc3)cn(C)c2o1)CC(O)c1cc2ccccc2o1 (stereo not shown) | 176 to 179 °C
15 | CN(Cc1cc2c(=O)c(C(=O)NCc3ccc(Cl)cc3)cn(C)c2o1)CC(O)c1cccs1 (stereo not shown) | 145 to 147 °C
16 | CN(Cc1cc2c(=O)c(C(=O)NCc3ccc(Cl)cc3)cn(C)c2o1)CC(O)c1ccc2ccccc2n1 (stereo not shown) | 154 to 159 °C (dec.)
17 | CN(Cc1cc2c(=O)c(C(=O)NCc3ccc(Cl)cc3)cn(C)c2o1)CC(O)c1cccn1C (stereo not shown) | 122 to 124 °C (dec.)
18 | CN(Cc1cc2c(=O)c(C(=O)NCc3ccc(Cl)cc3)cn(C)c2o1)CC(O)c1ccc(C#N)s1 (stereo not shown) | 190 to 195 °C (dec.)
19 | CN(Cc1cc2c(=O)c(C(=O)NCc3ccc(Cl)cc3)cn(C)c2o1)CC(O)c1nccs1 (stereo not shown) | 114 to 116 °C

Row | SMILES | melting point
20 | CN(Cc1cc2c(=O)c(C(=O)NCc3ccc(Cl)cc3)cn(C)c2o1)CC(O)c1ccc(-c2ccccc2)o1 (stereo not shown) | 115 to 119 °C
21 | Cc1cc(C(O)CN(C)Cc2cc3c(=O)c(C(=O)NCc4ccc(Cl)cc4)cn(C)c3o2)oc1C (stereo not shown) | 140 to 140.5 °C
22 | CN(Cc1cc2c(=O)c(C(=O)NCc3ccc(Cl)cc3)cn(C)c2o1)CC(O)c1cnccn1 (stereo not shown) | 148 to 151 °C
23 | CN(Cc1cc2c(=O)c(C(=O)NCc3ccc(Cl)cc3)cn(C)c2o1)C[C@@H](O)c1ncccn1 | 127 to 129 °C
24 | CN(Cc1cc2c(=O)c(C(=O)NCc3ccc(Cl)cc3)cn(C)c2o1)CC(CO)c1ccccc1 (stereo not shown) | 141 to 148 °C
25 | Cn1cc(C(=O)NCc2ccc(Cl)cc2)c(=O)c2ccoc21 | 197 to 205 °C
26 | Cn1cc(C(=O)NCc2ccc(Cl)cc2)c(=O)c2cc(Br)oc21 | 232 to 233 °C
27 | Cn1cc(C(=O)NCc2ccc(Cl)cc2)c(=O)c2cc(C#CCCO)oc21 | 242 to 243 °C (dec.)
28 | Cn1cc(C(=O)NCc2ccc(Cl)cc2)c(=O)c2cc(CCCCO)oc21 | 157 to 160 °C
29 | Cn1cc(C(=O)NCc2ccc(Cl)cc2)c(=O)c2cc(C#CCCCO)oc21 | 215 to 219 °C (dec.)
30 | Cn1cc(C(=O)NCc2ccc(Cl)cc2)c(=O)c2cc(CCCCCO)oc21 | 151 to 152 °C
31 | Cn1cc(C(=O)NCc2ccc(Cl)cc2)c(=O)c2cc(C#CC(O)c3ccccc3)oc21 (stereo not shown) | 209 to 211 °C (dec.)
32 | Cn1cc(C(=O)NCc2ccc(Cl)cc2)c(=O)c2cc(C#CCC(O)c3ccccc3)oc21 (stereo not shown) | 202 to 203 °C (dec.)
33 | Cn1cc(C(=O)NCc2ccc(Cl)cc2)c(=O)c2cc(CO)oc21 | 229 to 230 °C
34 | O=C(NCc1ccc(Cl)cc1)c1cc2c(O)c(C(=O)NCc3ccc(Cl)cc3)cnc2o1 | 230 to 245 °C
35 | Cn1cc(C(=O)NCc2ccc(Cl)cc2)c(=O)c2cc(CN3CCC[C@@H]3[C@@H](O)c3ccccc3)oc21 (relative stereo) | 141 to 150 °C (dec.)
36 | CN(Cc1cc2c(=O)c(C(=O)NCc3ccc(Cl)cc3)cn(C)c2o1)CC(O)c1ccccn1 (stereo not shown) [41] | 130 to 132 °C
37 | CN(Cc1cc2c(=O)c(C(=O)NCc3ccc(Cl)cc3)cn(C)c2o1)CC(O)c1ccccn1 (stereo not shown) [42] | 133 to 138 °C
